In the NIST ThermoML archive (doi:10.1016/j.jct.2009.05.005):
± gives the expanded uncertainty stated by the source. Values belong to the compound of their own block, whether it stands above or below them.

Assay: xn = mol fraction of the nth substance listed
Conditions: 298.15 K, 101 kPa, Liquid, Vibrating tube method

Structure (SMILES): CCO [ethanol] + CC1(C)[C@@H]2CC[C@@]1(CS(=O)(=O)O)C(=O)C2
mass density (x2 = 0): 785.026 ± 0.15 kg/m3

Structure (SMILES): CCO [ethanol] + CC1(C)[C@@H]2CC[C@@]1(C)C(=O)C2=O
mass density (x2 = 0): 785.025 ± 0.15 kg/m3

Structure (SMILES): CCO [ethanol] + CC1(C)[C@H]2CC[C@]1(CS(=O)(=O)O)C(=O)C2
mass density (x2 = 0): 785.024 ± 0.15 kg/m3

Structure (SMILES): CCO [ethanol] + CC1(C)[C@@H]2CC[C@@]1(C)C(=O)C2
mass density (x2 = 0): 785.055 ± 0.15 kg/m3

Structure (SMILES): CCO [ethanol] + CC1(C)[C@@H]2CC[C@@]1(CS(N)(=O)=O)C(=O)C2
mass density (x2 = 0): 785.013 ± 0.15 kg/m3

Structure (SMILES): CCO [ethanol] + CC1(C)[C@H]2CC[C@]1(CS(=O)(=O)Cl)C(=O)C2
mass density (x2 = 0): 785.035 ± 0.15 kg/m3

Structure (SMILES): CCO [ethanol] + CC1(C)C2CCC1(CS(=O)(=O)Cl)C(=O)C2
mass density (x2 = 0): 785.033 ± 0.15 kg/m3

Structure (SMILES): CC1(C)[C@H]2CC[C@]1(CS(=O)(=O)O)C(=O)C2 [(1R)-(-)-10-camphorsulfonic acid] + CCO
mass density (x1 = 0.001067): 787.036 ± 0.15 kg/m3
mass density (x1 = 0.001496): 787.969 ± 0.15 kg/m3
mass density (x1 = 0.002271): 789.366 ± 0.15 kg/m3

Structure (SMILES): CCO [ethanol] + CC1(C)[C@H]2CC[C@]1(C)C(=O)C2
mass density (x2 = 0): 785.056 ± 0.15 kg/m3

Structure (SMILES): CCO [ethanol] + CC1(C)[C@H]2CC[C@]1(C)C(=O)C2=O
mass density (x2 = 0): 785.022 ± 0.15 kg/m3

Next, values leading:

mass density (x1 = 0.001613): 786.229 ± 0.15 kg/m3
mass density (x1 = 0.003055): 786.828 ± 0.15 kg/m3
mass density (x1 = 0.009161): 788.869 ± 0.15 kg/m3
mass density (x1 = 0.01574): 789.42 ± 0.15 kg/m3
Structure (SMILES): CC1(C)[C@H]2CC[C@]1(C)C(=O)C2 [(1S)-1,7,7-trimethylbicyclo[2.2.1]heptan-2-one] + CCO

mass density (x1 = 0.001389): 786.235 ± 0.15 kg/m3
mass density (x1 = 0.00209): 786.827 ± 0.15 kg/m3
mass density (x1 = 0.002792): 787.379 ± 0.15 kg/m3
Structure (SMILES): CC1(C)[C@@H]2CC[C@@]1(C)C(=O)C2=O [(-)-camphorquinone] + CCO

mass density (x1 = 0.0006848): 786.329 ± 0.15 kg/m3
mass density (x1 = 0.001385): 787.654 ± 0.15 kg/m3
mass density (x1 = 0.002039): 788.885 ± 0.15 kg/m3
Structure (SMILES): CC1(C)[C@H]2CC[C@]1(CS(=O)(=O)Cl)C(=O)C2 [(1R)-(-)-10-camphorsulfonyl chloride] + CCO

mass density (x1 = 9.665e-05): 785.188 ± 0.15 kg/m3
mass density (x1 = 0.001502): 787.624 ± 0.15 kg/m3
mass density (x1 = 0.002013): 788.405 ± 0.15 kg/m3
Structure (SMILES): CC1(C)[C@@H]2CC[C@@]1(CS(N)(=O)=O)C(=O)C2 [(1S)-(+)-10-camphorsulfonamide] + CCO

mass density (x1 = 0.001613): 786.229 ± 0.15 kg/m3
mass density (x1 = 0.003055): 786.827 ± 0.15 kg/m3
mass density (x1 = 0.009161): 788.887 ± 0.15 kg/m3
mass density (x1 = 0.01574): 789.421 ± 0.15 kg/m3
Structure (SMILES): CC1(C)[C@@H]2CC[C@@]1(C)C(=O)C2 [d-camphor] + CCO

mass density (x1 = 0.001067): 787.039 ± 0.15 kg/m3
mass density (x1 = 0.001496): 787.971 ± 0.15 kg/m3
mass density (x1 = 0.002271): 789.368 ± 0.15 kg/m3
Structure (SMILES): CC1(C)[C@@H]2CC[C@@]1(CS(=O)(=O)O)C(=O)C2 [(1S)-(+)-10-camphorsulfonic acid] + CCO

mass density (x1 = 0.001389): 786.234 ± 0.15 kg/m3
mass density (x1 = 0.00209): 786.827 ± 0.15 kg/m3
mass density (x1 = 0.002792): 787.377 ± 0.15 kg/m3
Structure (SMILES): CC1(C)[C@H]2CC[C@]1(C)C(=O)C2=O [(+)-camphorquinone] + CCO

mass density (x1 = 0.0006848): 786.327 ± 0.15 kg/m3
mass density (x1 = 0.001385): 787.552 ± 0.15 kg/m3
mass density (x1 = 0.002039): 788.887 ± 0.15 kg/m3
Structure (SMILES): CC1(C)C2CCC1(CS(=O)(=O)Cl)C(=O)C2 (stereo not drawn) [d-10-camphorsulfonyl chloride] + CCO
